Source: publication PMC9521028, “Lengthening the Guanidine–Aryl Linker of Phenylpyrimidinylguanidines Increases Their Potency as Inhibitors of FOXO3-Induced Gene Transcription” (ACS Omega, 2022)
Values after ≈ are worked out from the molar mass of the structure shown.

Experiments:
[1] = system: endogenous DEPP1 and actin promoters in SH-EP cells; experiment: Toxicity control: endogenous DEPP1 and actin promoter luciferase reporters; assay type: cell-based; details: 0.78 μM, SH-EP cells
Method: (§1) The ability of these compounds to inhibit FOXO3 transcriptional activity was further examined by assessing their effect on FOXO3 binding to the promoter region of decidual protein induced by progesterone 1 (DEPP1) after transfecting a DEPP1-luciferase reporter plasmid into SH-EP neuroblastoma cells stably expressing a 4-hydroxy-tamoxifen (4OHT)-regulated FOXO3(A3)ERtm transgene. […] In parallel, the toxicity of the compounds was tested by assessing their effect on endogenous DEPP1 and actin promoters in SH-EP cells.
For this purpose, 2 × 10^6 SH-EP cells were transfected with either a DEPP1-LUC-reporter plasmid or an actin-LUC reporter plasmid using JetPrime reagent (Polyplus, Berkeley). Actin-LUC was constructed by inserting a 1.3 kb fragment of the chicken β actin promoter into pGL3-luc reporter vector (Promega, Madison). After 24 h of transfection, the cells were seeded into 24-well plates. After another 24 h, the cells were pretreated with indicated concentrations of compound for 3.5 h. Firefly-luciferase was analyzed using the Luciferase Assay System (Promega, Madison). Luminescence intensity was measured in a Hidex Chameleon—Multilabel Microplate Reader (Hidex, Turku, Finland).

[2] = system: FOXO3-induced apoptotic cell death in SH-EP/FOXO3 neuroblastoma cells; experiment: Resazurin early cell death evaluation assay; assay type: cell-based
Method: Moreover, we also attempted to determine the IC50 values of 5ci, 5cj, and 5db using a resazurin early cell death evaluation assay in cells expressing a conditional FOXO3 allele that triggers apoptotic cell death upon activation.
Neuroblastoma cells SH-EP/FOXO3 were seeded into 96-well plates and treated with concentrations 0.05, 0.1, 0.2, 0.39, 0.78, 1.56, 3.125, 6.25, 12.5, 18.75, and 25 μM of 5ca and its derivatives 30 min before activating ectopic FOXO3 by 100 nM 4OHT. For 5ca derivatives, concentrations above 3.125 μM had to be excluded from the analysis due to spontaneous cell death induction. Resazurin salt (Sigma-Aldrich s.r.o., St. Louis, Missouri) was diluted to a final concentration of 0.01% (wt/vol), and 20 μL of this dilution was added to 200 μL of the cell culture in each well 24 h after FOXO3 activation. Resazurin is reduced in viable cells to red-fluorescent resoflurin, which was quantified in a Hidex Chameleon—Multilabel Microplate Reader (Hidex, Turku, Finland) at filter settings 544 nm Ex/616 nm Em.

[3] = system: FOXO3 binding to the promoter region of DEPP1 in SH-EP/FOXO3 cells; experiment: DEPP1-luciferase reporter assay of FOXO3 transcriptional activity; assay type: cell-based
Method: as §1
Transcriptional activation of the DEPP1 promoter by conditional FOXO3 was assessed after transfection of a DEPP1-luciferase reporter plasmid pGS c10orf10 Prom wt (DEPP1-LUC)[20] into SH-EP/FOXO3 cells using the JetPrime reagent (Polyplus, Berkeley). After 24 h of transfection, mTFP fluorescent protein expression from a cotransfected expression vector was assessed by live cell fluorescence microscopy to verify equal transfection rates before seeding cells into 24-well plates. After 48 h of transfection, the cells were pretreated with indicated concentrations of each compound (30 min) before adding 100 nM 4-hydroxy-tamoxifen (4OHT) for 3 h to activate ectopic FOXO3. Firefly-luciferase was analyzed using the Luciferase Assay System (Promega, Madison). Luminescence intensity was measured in a Hidex Chameleon—Multilabel Microplate Reader (Hidex, Turku, Finland).

FOXO3-DBD = molecular target: T1, FOXO3-DBD (Homo sapiens, UniProt O43524); experiment: NMR (1H STD and 1H-15N HSQC titration) of compound binding to FOXO3-DBD; details: 15 μM FOXO3-DBD, 1 mM compound, pH 6.5, 298 K
T1 construct: DNA encoding human FOXO3-DBD (residues 156–269); GST (N, cleaved yes); made in house; host or cells: E. coli BL21(DE3)
Method: STD experiment was performed at 298 K on a Bruker Avance III HD 850 MHz spectrometer (Bruker, Billerica, Massachusetts) equipped with a ^13C/^1H/^15N cryoprobe. The 550 μL sample contained 15 μM FOXO3-DBD and 1 mM 5cj in 20 mM phosphate buffer (pH 6.5) supplemented by 50 mM KCl and 10% ^2H2O. ^1H STD NMR was performed using a standard “stddiffesgp” pulse sequence with excitation sculpting and pulse-field gradients for water suppression. On-resonance irradiation was done at −0.54 ppm and off-resonance irradiation at 30 ppm, using a 50 ms shaped Eburp2.1000 pulse of power 40 dB for a saturation time of 3 s. The difference spectra were obtained by subtracting the on-resonance spectrum from the off-resonance spectrum. The spectra were analyzed using TopSpin software (v3.6).
2D ^1H–^15N HSQC spectra were acquired on both Bruker Avance III HD 850 MHz and Bruker Avance III 600 MHz (Bruker, Billerica, Massachusetts) spectrometers equipped with a ^13C/^1H/^15N cryoprobe. All HSQC experiments were measured at 298 K in Shigemi NMR tubes (Shigemi Co., Ltd., Tokyo, Japan) containing 350 μL of sample in 100 mM phosphate buffer (pH 6.5) supplemented with 50 mM KCl and 10% ^2H2O. […] All spectra were processed in TopSpin software (v3.6) and evaluated in Sparky software (v3.1).[43] CSP values obtained from 2D ^1H–^15N HSQC experiments were calculated using the following formula[44] […]

[4] = Estimation of compound solubility in water (saturated solution, UV-vis); assay type: physicochemical; details: aqueous buffer, thermodynamic from solid; 20 mM phosphate (pH 6.5) and 50 mM KCl buffer at 23 °C
Method: To estimate the solubility, we prepared saturated solutions of the compounds by adding 5 mg of each selected compound to 700 μL of 20 mM phosphate buffer (pH 6.5) containing 50 mM KCl. After 48 h of gentle agitation at room temperature (RT), the solutions were spun down, and the supernatant was filtered through 0.2 μm of SPARTAN 13/0.2 RC filter units (Merck KgaA, Darmstadt, Germany) and diluted 100–200× in the same phosphate buffer. The diluted solutions were transferred into the quartz cuvette, recording UV–vis absorption spectra in the range from 200 to 600 nm on a UV-1800 UV/visible scanning spectrophotometer (Shimadzu, Kyoto, Japan) at room temperature. The compound concentrations were estimated by the single point calibration using the absorption at wavelengths higher than 240 nm outside of DMSO absorption of 2000× diluted 50 mM DMSO-dissolved stock solution in phosphate buffer.

T1 sequence (O43524 156-269): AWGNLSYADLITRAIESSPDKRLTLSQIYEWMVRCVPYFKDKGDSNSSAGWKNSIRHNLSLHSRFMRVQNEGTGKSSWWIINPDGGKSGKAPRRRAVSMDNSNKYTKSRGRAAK

Cc1cc(C)nc(NC(=N)NCCc2ccccc2)n1 [5cj, 1-(4,6-Dimethylpyrimidin-2-yl)-3-phenethylguanidine]
effect on endogenous DEPP1 and actin promoters (toxicity markers) [1]: without any effect
IC50 ([2]; Neuroblastoma cell, SH-EP/FOXO3 cells, 100 nM 4OHT, 24 h, approximate, toxicity prevented accurate determination, read-out: IC50, inhibition of FOXO3-induced cell death): ~1000 nM
concentration above which the compound is toxic (spontaneous cell death) ([2]; SH-EP/FOXO3 cells): higher than 4 μM
fold lower IC50 than that of 5ca ([2]; resazurin assay, ratio to 5ca IC50 of ∼8 μM): 8–16 ×
potency in blocking FOXO3 binding to the promoter region of DEPP1 ([3]; 25 and 12.5 μM compound): the most potent compounds
efficiency of blocking FOXO3 binding to the promoter region of DEPP1 ([3]; lower concentrations, down to 0.78 μM): more efficiently than 5cg, 5da, and 5dc
inhibition of FOXO3-mediated transcription ([3]; lowest concentration tested, 0.78 μM): significantly inhibited
inhibitory potency on target gene activation by FOXO3 (in words) ([3]; summary of the reporter data, Figures 2, S2, S3): highest inhibitory potency
1H STD NMR signals with FOXO3-DBD (FOXO3-DBD): STD signals were detected
solubility at 48 h [4]: 13 mM (≈ 3500 µg/mL)
